The values below come from ChEMBL document CHEMBL2157890, “Targeting pancreatic cancer with a G-quadruplex ligand” (Bioorg Med Chem, 2011).

By ΔTm is commonly meant the change in melting temperature against a reference sample. Broadly, the MTD is the largest dose that counted as tolerated. Broadly, the inhibition in vivo is the share of the control response that was lost under treatment.

The source made the active and inactive calls. The calls are words filed in the database; no cut-off is given here.

Data set [1] concerns MIA PaCa-2. Nature of the data set: Effect on gammaH2AX protein expression human MIAPaCa2 cells at 0.1 uM to 1 uM incubated for 8 hrs by Western blot. Format: functional, cell-based. Background: Immunoblotting shows a protein as a band on a membrane.
Data set [2] has as its system Mus musculus. Nature of the data set: Reduction in Bcl-2 protein expression in human MIAPaCa2 cells xenografted Swiss mouse tumor at 3 mg/kg, ip dosed three times per week by immunoblot. Also noted: scale not given: the % may be the effect or the level left. Format: functional, MIA PaCa-2. To be noted: route intraperitoneal. (Xenograft models place foreign cells or tissue in a host animal.)

Data set [3] concerns Nucleic Acid. Nature of the data set: Stabilization of HSP90b DNA G-quadruplex assessed as change in melting temperature at 1 uM by FRET. Format: nucleic-acid assay.
The subject of data set [4] is Mus musculus. Description: Biodistribution in human MIAPaCa2 cells xenografted Swiss mouse tumor at 3 mg/kg, ip dosed three times per week measured 48 hrs after last 4 cycles of compound dosing. Format: ADME, organism-based, Neoplasm, MIA PaCa-2. Also noted: dose 3 mg/kg, route intraperitoneal. Conditions: in vivo.
The test system of data set [5] is Nucleic Acid. Nature of the data set: Stabilization of HSP90b DNA G-quadruplex assessed as change in melting temperature at 0.5 uM by FRET. Format: nucleic-acid assay.
Data set [6] in a line: Toxicity in human MIAPaCa2 cells xenografted in Swiss mouse assessed as maximum tolerated dosed intraperitoneally three times per week. Format: organism-based, MIA PaCa-2. To be noted: in vivo, ip.
Data set [7] concerns Nucleic Acid. Description: Stabilization of HSP90a DNA G-quadruplex assessed as change in melting temperature at 1 uM by FRET. Format: nucleic-acid assay.
Data set [8] relates to Nucleic Acid. Description: Stabilization of HSP90a DNA G-quadruplex assessed as change in melting temperature at 0.5 uM by FRET. Format: nucleic-acid assay.
Data set [9] concerns Mus musculus. Description: Reduction in HSP90 protein expression in human MIAPaCa2 cells xenografted Swiss mouse tumor at 3 mg/kg, ip dosed three times per week by immunoblot. Format: functional, MIA PaCa-2. Also noted: scale not given: the % may be the effect or the level left. To be noted: route intraperitoneal.
Data set [10] deals with MIA PaCa-2. Nature of the data set: Antitumor activity against human MIAPaCa2 cells xenografted in Swiss mouse assessed as reduction tumor volume at 3 mg/kg, ip dosed three times per week. To be noted: route intraperitoneal. Format: functional. Also noted: scale not given: the % may be the effect or the level left.
For data set [11], the system named is Mus musculus. Nature of the data set: Inhibition of telomerase activity in human MIAPaCa2 cells xenografted Swiss mouse at 3 mg/kg, ip dosed for 25 days by TRAP-LIG assay relative to untreated control. To be noted: MIA PaCa-2, ip, 600 h, route intraperitoneal. Format: functional.
For a further data set, the system named is Pancreas. Nature of the data set: Biodistribution in human MIAPaCa2 cells xenografted Swiss mouse Pancreas at 3 mg/kg, ip dosed three times per week measured 48 hrs after last 4 cycles of compound dosing. Also on record: dose 3 mg/kg, route intraperitoneal. Conditions: in vivo. Format: ADME, organism-based, MIA PaCa-2.
Data set [12] concerns Mus musculus. Description: Reduction in hTERT protein expression in human MIAPaCa2 cells xenografted Swiss mouse tumor at 3 mg/kg, ip dosed three times per week by immunoblot. Format: functional, MIA PaCa-2. Also noted: scale not given: the % may be the effect or the level left. Conditions: route intraperitoneal.
The subject of data set [13] is MIA PaCa-2. Nature of the data set: Effect on PARP protein expression human MIAPaCa2 cells at 0.1 uM to 1 uM incubated for 8 hrs by Western blot. Format: functional, cell-based.
Data set [14] concerns Mus musculus. Description: Reduction in k-Ras protein expression in human MIAPaCa2 cells xenografted Swiss mouse tumor at 3 mg/kg, ip dosed three times per week by immunoblot. Format: functional, organism-based. Also on record: dose 3 mg/kg. Conditions: MIA PaCa-2.
The test system of data set [15] is Mus musculus. Nature of the data set: Toxicity in human MIAPaCa2 cells xenografted in Swiss mouse assessed as incidence of weight loss at 3 mg/kg, ip dosed three times per week. Format: organism-based, MIA PaCa-2. Also on record: dose 3 mg/kg, route intraperitoneal. To be noted: in vivo.

In the case of `CN1CCN(CCCNc2cc3c4c(c(NCCCN5CCN(C)CC5)cc5c4c2C(=O)N(CCCN2CCN(C)CC2)C5=O)C(=O)N(CCCN2CCN(C)CC2)C3=O)CC1`, the outcome in the data set on MIA PaCa-2 [1], in the data set with MIA PaCa-2 [13] and with Mus musculus [14] was inactive. Besides, the Activity is given as 10% with Mus musculus [2]; 30% with Mus musculus [9]; 50% in the data set on MIA PaCa-2 [10]; 30% in the data set on Mus musculus [12]; “Non-toxic” with Mus musculus [15]. Moreover, the ΔTm in the data set on Nucleic Acid [3] came out at 32 °C; in the data set on Nucleic Acid [5], 31 °C; with Nucleic Acid [7], 36.3 °C; with Nucleic Acid [8] it was 34.9 °C. The Drug uptake result in the data set with Mus musculus [4] and in the data set on Pancreas was “Active” throughout. Besides, in data set [6], the maximal tolerated dose (MTD) was 15 mg/kg. The compound further came in with an inhibition in vivo at 3 mg/kg in the data set with Mus musculus [11] of 50%.
